The results in this text go back to article PMC8672821, “Investigating 3,3-diaryloxetanes as potential bioisosteres through matched molecular pair analysis” (RSC Medicinal Chemistry, 2021).

The nature of series [1]: Clearance by human liver microsomes (HLM) stability assay. The class given is in vitro ADME. The following applies: pH 7.4; pooled human liver microsomes, 1 µM test compound, 37 °C. The protocol: (§1) HLM Assay: The high throughput human microsomal stability assay was performed in a 384 -well format.
All liquid handling and incubation were conducted with a Biomek FX, equipped with one 3 position Mecour heat exchangers. Pooled human liver microsomes of 50 don ors (Lot: HLM-103) were purchased from BioIVT. Each incubation contained test compound (1 µM), human liver microsomes ([…] CYP protein equivalent to 0.806 mg/mL protein concentration), NADPH (1.3 mM), MgCl 2 (3.3 mM) and potassium phosphate buffer (100 mM at pH 7.4). The final reaction volume was […] containing 0.01% DMSO. The incubations were conducted at 37 °C at various time points (1, 4, 7, 12, 20, 25, 45, 60 min). Cold acetonitrile with mass spectrometry (MS) internal standard (IS, CP-628374) was then added to quench the reaction.
The plates were centrifuged at 3000 rpm for 10 min at 4 °C (Sorvall RC 3C Plus, Thermo Scienti fic, Waltham, MA). The water layer was transferred to the 384 -well plate, sealed and subsequently analy sed using LCeMS/MS. Control plates were prepared in the same manner without adding the NADPH cofactor to monitor any non-CYP catalysed decline. Propranolol (2D6, 1A2 and 2C19 substrate), quinidine (3A4), diclofenac (2C9), verapamil (3A4, 1A2, 2C), amitriptyline (2D6, 2C19) and naloxone (UGT2B7) were used as positive controls on each plate to monitor the activities of the various CYPs in the assay. […]
On the technique in general: Microsomes from liver hold many membrane-bound enzymes, among them those of drug oxidation.

Series [2] in a line: sfLogD.
Series [3] can be described thus: elogD, automated reversed phase-HPLC logD (pH 7.4). The class given is physicochemical. Particulars: Supelcosil LC-ABZ column. How it is done:
(§2) elogD: An automated reversed phase-HPLC method developed by Lombardo et al. was used for logD (pH 7.4) measurements. All the chromatographic runs were performed on a HP -1100 HPLC ChemStation at the ambient temperature. The HPLC columns used were Supelcosil LC-ABZ, 5 µm, 4.6 mm × 50 mm. A diode array detector was used to monitor signals at 210, 225, 245, and 310 nm. The mobile phase consisted of 15−75% of A and 85−25% of B.
(§3) Mobile phase A: methanol with addition of 0.25% 1-octanol.
(§4) Mobile phase B: 20 mM of MOPS (morpholine−propane−sulfonic acid) buffer prepared in octanol saturated water and 0.25% of n-decylamine.
(§5) Samples were prepared in 1:1 mixture of methanol/water at 100 μg/mL concentration.
The retention of each compound is obtained at three different concentrations of methanol in the mobile phase and extrapolated to 0% methanol (100% water). […]

Series [4] in a line: RRCK passive permeability assay. The class given is in vitro ADME, canine. The following applies: dog, MDCK; read-out: RRCK cell permeability. How it is done:
Aqueous buffer preparation: pH 3: 50 µL of 1N hydrochloric acid was added to 500 mL of deionized water.
The solution was titrated with 1N hydrochloric acid to pH 3, and back titrated with 1N sodium hydroxide. pH 7.4: 100 mM sodium phosphate buffer is made by adding 56.4 g of dibasic sodium phosphate and 10.3 g of monobasic sodium phosphate to 4 L of deionized water. 250 µL of 100 mM sodium phosphate buffer was diluted with 250 µL of deionized water. The solution was titrated with 1N hydrochloric acid to pH 7.4, and back titrated with 1N sodium hydroxide. pH 10: Fisher Scientific pH 10 buffer (SB116-500) containing potassium hydroxide, potassium carbonate, and potassium borate. pH 12.8: 30 mL of 1N NaOH was added to 200 mL of deionized water. The solution was titrated with 1N sodium hydroxide to pH 12.8, and back titrated with 1N hydrochloric acid.
RRCK: Passive permeability assay were carried out using low‐efflux MDCKII cells (Madin–Darby canine kidney cell line) also called Ralph Russ Canine Kidney cell (RRCK).11

The nature of series [5]: Chemical (pH) stability assay. The class given is physicochemical. The following applies: low pH (1.2), 37 °C, up to 4 h. How it is done:
as §2, §3, §4, §5
The retention of each compound is obtained at three different concentrations of methanol in the mobile phase and extrapolated to 0% methanol (100% water).
as §1
All liquid handling and incubation were conducted with a Biomek FX, equipped with one 3 position Mecour heat exchangers. Pooled human liver microsomes of 50 don ors (Lot: HLM-103) were purchased from BioIVT. […]
Assay ready plated: Plate containing 6µL at 30 mM of test compounds in 96 deep well plate (volume = 600 µL). […]

One may read the microsomal CLint as a measure of how fast metabolising enzymes remove a compound, apart from limits set by blood flow. The low end stands for slow turnover, the high end for rapid turnover. The melting point is the temperature of the solid-liquid transition. In general, logD refers to the decadic logarithm of the distribution of all forms, ionised or not, between an organic phase and buffer at a given pH. By chromatographic logD is commonly meant a lipophilicity value derived from retention on a column.

In series [1], `Cc1cc(C(=O)c2cn(C)c3ccccc23)ccc1OC1CNC1` [C00004] yielded a microsomal CLint at 1 µM of less than 7 µL/min/mg.
`COc1ccc(C2(c3ccc(O)c(C)c3)COC2)cc1` [C00005] gave a microsomal CLint at 1 h, 1 µM in series [1] of 80 µL/min/mg.
Same read-out and setting: for `Cc1cc(C2(c3cn(C)c4ccccc34)COC2)ccc1-c1cnc(C(F)(F)F)nc1` [C00009] the value was 8.5 µL/min/mg.
Consider `Cc1cc(Cc2cn(C)c3ccccc23)ccc1O` [5c], for which the melting point was 77 to 79 °C. The logD in series [2] worked out at 2.79. Moreover, the chromatographic logD in series [3] is 4.78. For the same compound, the Papp in series [4] is 0.1 ×10⁻⁶ cm/s.
Compound `Cc1cc(C(=O)c2cn(C)c3ccccc23)ccc1O` [5b] showed a melting point of 239 to 241 °C. Besides, the “chemical stability (% compound remaining), in words” value in series [5] is “poorer stability at low pH”. The same compound displayed a logD in series [2] of 3.33. The compound also had a chromatographic logD in series [3] of 3.3.
As for `COc1ccc(C2(c3ccc(-c4c[nH]nc4C(F)(F)F)c(C)c3)COC2)cc1` [9a], the melting point lay in the range of 175 to 177 °C. In series [2], this compound yielded a logD of 4.62. The same compound registered a chromatographic logD in series [3] of 4.5.
For `COc1ccc(C2(c3ccc(O)c(C)c3)COC2)cc1` [10a] the same measures were 140 to 143 °C, 3.22 and 3.07.
Compound `Cc1cc(C(=O)c2cn(C)c3ccccc23)ccc1Oc1ccccn1` [3b] registered a melting point of 123 to 124 °C. For the same compound, in series [2], the pH-dependent lipophilicity (logD) was determined as 1.92. The compound also showed a chromatographic logD in series [3] of 3.99.
Turning to `COc1ccc(C(=O)c2ccc(N3CCOCC3)c(C)c2)cc1` [8b], the logD in series [2] turned out to be 3.06. The same compound registered a chromatographic logD in series [3] of 3.9.
`Cc1cc(C(C)(C)c2cn(C)c3ccccc23)ccc1O` [5d]: the melting point was 110 to 112 °C. In series [2], this compound displayed a logD of 3.72. In series [3], the chromatographic logD is 5.05.
`COc1ccc(C(=O)c2ccc(-c3c[nH]nc3C(F)(F)F)c(C)c2)cc1` [9b]: the melting point lay in the range of 207 to 208 °C. Besides, in series [2], the logD was found to be 4.74. This compound returned a chromatographic logD in series [3] of 4.8.
`Cc1cc(C2(c3cn(C)c4ccccc34)COC2)ccc1O` [C00001] displayed a microsomal CLint at 1 h, 1 µM in series [1] of 22.9 µL/min/mg.
Take `Cc1cc(C2(c3cn(C)c4ccccc34)COC2)ccc1Oc1ccccn1` [3a]: the melting point fell in the range of 175 to 177 °C. In series [2], this compound displayed a logD of 4.36. Besides, the chromatographic logD in series [3] was 4.6.
Turning to `COc1ccc(C2(c3ccc(OC4CNC4)c(C)c3)COC2)cc1` [C00007], the microsomal CLint at 1 h, 1 µM in series [1] came to 7.5 µL/min/mg.
In turn, `Cc1cc(Cc2cn(C)c3ccccc23)ccc1OC1CNC1` [1c] showed a melting point of 80 to 82 °C. This compound also came in with a logD in series [2] of 1.68. This compound showed a chromatographic logD in series [3] of 3.1.
Take `Cc1cc(C2(c3cn(C)c4ccccc34)COC2)ccc1OC1CNC1` [C00003]: in series [1], the microsomal CLint at 1 µM is less than 7 µL/min/mg.
In turn, `Cc1cc(C(=O)c2cn(C)c3ccccc23)ccc1OC1CNC1` [1b] gave a melting point of 70 to 75 °C. Further, the logD in series [2] is 1.07.
Regarding `Cc1cc(C2(c3cn(C)c4ccccc34)COC2)ccc1-c1cnc(C(F)(F)F)nc1` [4a], the melting point lay in the range of 181 to 182 °C. For the same compound, the chromatographic logD in series [3] is 5.1.
In series [1], `COc1ccc(C(=O)c2ccc(O)c(C)c2)cc1` [C00006] yielded a microsomal CLint at 1 h, 1 µM of 77.4 µL/min/mg.
In series [1], `Cc1cc(C(=O)c2cn(C)c3ccccc23)ccc1-c1cnc(C(F)(F)F)nc1` [C00010] returned an intrinsic metabolic clearance (microsomal CLint) at 1 µM of less than 7 µL/min/mg.
As for `Cn1cc(C2(c3ccc(OC4CNC4)cc3)COC2)c2ccccc21` [2a], the logD in series [2] turned out to be 0.99. The chromatographic logD in series [3] came to 1.7.
Compound `COc1ccc(C2(c3ccc(OC4CNC4)c(C)c3)COC2)cc1` [7a] gave a melting point of 108 to 115 °C. Also, in series [2], the logD was 1.06. The same compound returned a chromatographic logD in series [3] of 1.43.
`COc1ccc(C(=O)c2ccc(OC3CNC3)c(C)c2)cc1` [C00008] displayed a microsomal CLint at 1 h, 1 µM in series [1] of 75 µL/min/mg.
Still for that read-out and setting: for `Cc1cc(C(=O)c2cn(C)c3ccccc23)ccc1O` [C00002] the value was 18 µL/min/mg.
`Cc1cc(C(C)(C)c2cn(C)c3ccccc23)ccc1OC1CNC1` [1d]: the melting point lay in the range of 75 to 80 °C. In series [2], this compound displayed a logD of 2.59. Moreover, the chromatographic logD in series [3] was found to be 2.9.
The corresponding values for `COc1ccc(C2(c3ccc(N4CCOCC4)c(C)c3)COC2)cc1` [8a] are 133 to 135 °C, 3.47 and 3.68.
Consider `Cc1cc(C2(c3cn(C)c4ccccc34)COC2)ccc1O` [5a], for which the melting point lay in the range of 233 to 235 °C. In addition, the “chemical stability (% compound remaining), in words” value in series [5] is “poorer stability at low pH”. For the same compound, in series [2], the logD came out at 3.63. Further, the chromatographic logD in series [3] amounted to 3.73.
For the compound `Cc1cc(C(=O)c2cn(C)c3ccccc23)ccc1-c1cnc(C(F)(F)F)nc1` [4b], the melting point was in the range of 185 to 187 °C. Further, the logD in series [2] turned out to be 4.21. This compound also registered a chromatographic logD in series [3] of 4.3.
For `COc1ccc(C(=O)c2ccc(OC3CNC3)c(C)c2)cc1` [7b] the same measures were 99 to 103 °C, 1.21 and 1.74.
As for `COc1ccc(C(=O)c2ccc(O)c(C)c2)cc1` [10b], the melting point fell in the range of 186 to 187 °C. The logD in series [2] amounted to 3.49.
In the case of `Cc1cc(C2(c3cn(C)c4ccccc34)CCC2)ccc1OC1CNC1` [1e], in series [2], the logD worked out at 2.81. Further, in series [3], the chromatographic logD was 3.2.
The compound `Cn1cc(C2(c3ccc(O)cc3)COC2)c2ccccc21` [6a] returned a melting point of 207 to 209 °C. In series [2], this compound returned a logD of 3.27. In series [3], this compound gave a chromatographic logD of 3.28.
For `Cc1cc(C2(c3cn(C)c4ccccc34)COC2)ccc1OC1CNC1` [1a] the same measures were 100 to 103 °C, 1.37 and 2.13.
